{"source": "patent US20130023504A1", "about": "“Modulation of Prostaglandin/Cyclooxygenase Metabolic Pathways” (HUNTER-FLEMING LIMITED, priority 2006, published 2013)", "type_in_all_cases": "cell-based", "key": {"[1]": {"tested_on": "m-PGES1 mRNA", "experiment": "m-PGES1 mRNA in human PBMC with and without TNF-α, quantitative RT-PCR", "experimental": "(§1) Whole blood was collected from donors in EDTA-supplemented pouches at the Etablissement Français du Sang (Brest, France). The PBMC were isolated then from whole blood under sterile conditions within 36 hours after collection. Gradient density centrifugation was carried out on Ficoll (Eurobio). After washing in RPMI 1640 medium (Eurobio), cells were suspended in RPMI 1640 medium supplemented with 10% heat-inactivated fetal calf serum (Eurobio), 2 mM glutamine (D. Dutscher), 100 U of penicillin/ml (D. Dutscher), and 100 μg of streptomycin/ml (D. Dutscher). Monocytes were selected by plastic adherence for 1 h and approximately 10^7 cells were plated in 6-well tissue culture plates (3 mL medium per well). All incubations were performed in a humidified incubator at 37° C. and 5% CO2. Cells were recovered and dispersed in 2 ml fresh incubation medium supplemented with either 7β-hydroxyEPIA, 7β-hydroxy-DHEA, or 7α-hydroxy-DHEA (in 20 μL ethanol) in the presence or absence of 0.01 μg/mL TNF-α (Sigma-Aldrich). Control incubations contained 20 μl ethanol but no steroid. Supernatants were collected after 4 h and 24 hours incubations for measurement of their PG contents and cells were used for subsequent RNA isolation. A single step extraction method using the Trizol Reagent (Invitrogen, Cergy-Pontoise, France) provided total RNA.\n(§2) cDNAs were synthesized from TURBO DNase I—treated RNA (Ambion, Huntingdon, UK) using the Superscript first strand synthesis system kit (Invitrogen). RT-PCR amplification mixtures (50 μL) contained 2.5× RealMaster Mix/20×SYBR solution (11.25 μL) (Eppendorf, Le Pecq, France) and 200 nM forward and reverse primers. Reactions were run on a RealPlex ep gradient S mastercycler (Eppendorf). The cycling conditions were 10 minutes at 95° C. and 45 cycles at 95° C., 55° C. and 68° C. for 15 seconds, 30 seconds and 30 seconds, respectively. Each assay included a standard curve of four serial dilution points of control cDNA. The HPRT1 housekeeping gene was used for quantification. All oligonucleotide primers (Table 2) were synthesized by Genecust/Distribio (Evry, France). The specificity of the amplified product was monitored by examining the melting curve of the product and confirmed by analysis on agarose gel electrophoresis.\n(§3) All assays were carried out in triplicate and results were plotted as mean±S.E.M. One-way analysis of variance was performed followed by Duncan's multiple range tests in order to compare the differences between groups. Differences were considered statistically significant when p<0.05."}, "[2]": {"tested_on": "COX-2 mRNA", "experiment": "COX-2 mRNA in human PBMC with and without TNF-α, quantitative RT-PCR", "experimental": "as §1, §2, §3"}, "[3]": {"tested_on": "human PBMC", "experiment": "PG levels (PGE2, PGD2, 15d-PGJ2) in culture medium of human PBMC cultured with and without TNF-α, EIA (Example 3)", "experimental": "as §1\nCommercially available EIA kits were used for the determination of PGE2 levels (Oxford Biomedical Research, UK) and 15d-PGJ2 levels (Assay designs, Euromedex, France) in culture media. Measurement of PGD2 levels was obtained using the prostaglandin D2-MOX EIA kit (Cayman Chemical, Euromedex). In this case, and prior to assay, the fresh samples were immediately treated with the MOX-HCl reagent, which converted PGD2 into PGD2-MOX, thus preventing any further chemical degradation.\nas §3"}, "[4]": {"details": "100 nM + TNF-α (10 ng/mL), 24 h"}}, "note": "Marks after values point to notes of the source that are not given here.", "data": [{"compound": "CC12CCC3C(C1CCC2=O)[C@H](O)C=C1C[C@@H](O)CCC13C", "note": "(stereo partly drawn) [7α-hydroxy-DHEA, 7α-hydroxy-dehydroEPIAndrosterone]", "values": [{"measurement": "mPGES1 (mRNA), mRNA production relative to controls", "setting": "[1]; 1 nM + TNF-α (10 ng/mL), 24 h", "result": "21.5 ± 6.66^a"}, {"measurement": "mPGES1 (mRNA), mRNA production relative to controls", "setting": "[1]; 1 nM, 4 h, without TNF-α", "result": "0.76 ± 0.053"}, {"measurement": "mPGES1 (mRNA), mRNA production relative to controls", "setting": "[1]; 1 nM, 24 h, without TNF-α", "result": "1.77 ± 0.324^a"}, {"measurement": "mPGES1 (mRNA), mRNA production relative to controls", "setting": "[1]; 10 nM + TNF-α (10 ng/mL), 24 h", "result": "24.9 ± 10.30^a"}, {"measurement": "mPGES1 (mRNA), mRNA production relative to controls", "setting": "[1]; 10 nM, 4 h, without TNF-α", "result": "0.94 ± 0.067"}, {"measurement": "mPGES1 (mRNA), mRNA production relative to controls", "setting": "[1]; 10 nM, 24 h, without TNF-α", "result": "3.61 ± 0.662^a"}, {"measurement": "mPGES1 (mRNA), mRNA production relative to controls", "setting": "[1]; [4]", "result": "25.4 ± 6.96^a"}, {"measurement": "mPGES1 (mRNA), mRNA production relative to controls", "setting": "[1]; 100 nM, 4 h, without TNF-α", "result": "0.71 ± 0.058"}, {"measurement": "mPGES1 (mRNA), mRNA production relative to controls", "setting": "[1]; 100 nM, 24 h, without TNF-α", "result": "2.63 ± 0.475^a"}, {"measurement": "COX-2 (mRNA), mRNA production relative to controls", "setting": "[2]; 1 nM + TNF-α (10 ng/mL), 4 h", "result": "4.72 ± 1.229^a"}, {"measurement": "COX-2 (mRNA), mRNA production relative to controls", "setting": "[2]; 1 nM, 4 h, without TNF-α", "result": "0.56 ± 0.072^b"}, {"measurement": "COX-2 (mRNA), mRNA production relative to controls", "setting": "[2]; 1 nM, 24 h, without TNF-α", "result": "0.82 ± 0.27^b"}, {"measurement": "COX-2 (mRNA), mRNA production relative to controls", "setting": "[2]; 10 nM + TNF-α (10 ng/mL), 4 h", "result": "3.70 ± 1.246^a"}, {"measurement": "COX-2 (mRNA), mRNA production relative to controls", "setting": "[2]; 10 nM, 4 h, without TNF-α", "result": "0.94 ± 0.048"}, {"measurement": "COX-2 (mRNA), mRNA production relative to controls", "setting": "[2]; 10 nM, 24 h, without TNF-α", "result": "1.66 ± 0.408^a"}, {"measurement": "COX-2 (mRNA), mRNA production relative to controls", "setting": "[2]; 100 nM, 4 h, without TNF-α", "result": "1.10 ± 0.108"}, {"measurement": "COX-2 (mRNA), mRNA production relative to controls", "setting": "[2]; 100 nM, 24 h, without TNF-α", "result": "1.05 ± 0.214"}, {"measurement": "15d-PGJ2", "setting": "[3]; 1 nM + TNF-α (10 ng/mL), 4 h", "result": "0.37 ± 0.020", "unit": "ng/mL"}, {"measurement": "PGD2", "setting": "[3]; 1 nM + TNF-α (10 ng/mL), 4 h", "result": "0.20 ± 0.003", "unit": "ng/mL"}, {"measurement": "PGE2", "setting": "[3]; 1 nM + TNF-α (10 ng/mL), 4 h", "result": "0.43 ± 0.003", "unit": "ng/mL"}, {"measurement": "15d-PGJ2", "setting": "[3]; 1 nM + TNF-α (10 ng/mL), 24 h", "result": "0.63 ± 0.007^d ng/mL"}, {"measurement": "PGE2", "setting": "[3]; 1 nM + TNF-α (10 ng/mL), 24 h", "result": "1.53 ± 0.048^c ng/mL"}, {"measurement": "15d-PGJ2", "setting": "[3]; 1 nM, 4 h, without TNF-α", "result": "0.46 ± 0.004", "unit": "ng/mL"}, {"measurement": "PGD2", "setting": "[3]; 1 nM, 4 h, without TNF-α", "result": "0.17 ± 0.004", "unit": "ng/mL"}, {"measurement": "PGE2", "setting": "[3]; 1 nM, 4 h, without TNF-α", "result": "0.22 ± 0.006", "unit": "ng/mL"}, {"measurement": "15d-PGJ2", "setting": "[3]; 1 nM, 24 h, without TNF-α", "result": "0.51 ± 0.013^a ng/mL"}, {"measurement": "PGD2", "setting": "[3]; 1 nM, 24 h, without TNF-α", "result": "0.13 ± 0.001", "unit": "ng/mL"}, {"measurement": "PGE2", "setting": "[3]; 1 nM, 24 h, without TNF-α", "result": "0.23 ± 0.003", "unit": "ng/mL"}, {"measurement": "15d-PGJ2", "setting": "[3]; 10 nM + TNF-α (10 ng/mL), 4 h", "result": "0.40 ± 0.004", "unit": "ng/mL"}, {"measurement": "PGD2", "setting": "[3]; 10 nM + TNF-α (10 ng/mL), 4 h", "result": "0.17 ± 0.006", "unit": "ng/mL"}, {"measurement": "PGE2", "setting": "[3]; 10 nM + TNF-α (10 ng/mL), 4 h", "result": "0.45 ± 0.012", "unit": "ng/mL"}, {"measurement": "15d-PGJ2", "setting": "[3]; 10 nM + TNF-α (10 ng/mL), 24 h", "result": "0.71 ± 0.012^d ng/mL"}, {"measurement": "PGE2", "setting": "[3]; 10 nM + TNF-α (10 ng/mL), 24 h", "result": "1.75 ± 0.052^c ng/mL"}, {"measurement": "15d-PGJ2", "setting": "[3]; 10 nM, 4 h, without TNF-α", "result": "0.42 ± 0.010", "unit": "ng/mL"}, {"measurement": "PGD2", "setting": "[3]; 10 nM, 4 h, without TNF-α", "result": "0.18 ± 0.002", "unit": "ng/mL"}, {"measurement": "PGE2", "setting": "[3]; 10 nM, 4 h, without TNF-α", "result": "0.22 ± 0.006", "unit": "ng/mL"}, {"measurement": "15d-PGJ2", "setting": "[3]; 10 nM, 24 h, without TNF-α", "result": "0.59 ± 0.003^a ng/mL"}, {"measurement": "PGD2", "setting": "[3]; 10 nM, 24 h, without TNF-α", "result": "0.17 ± 0.003", "unit": "ng/mL"}, {"measurement": "PGE2", "setting": "[3]; 10 nM, 24 h, without TNF-α", "result": "0.30 ± 0.006", "unit": "ng/mL"}, {"measurement": "15d-PGJ2", "setting": "[3]; 100 nM + TNF-α (10 ng/mL), 4 h", "result": "0.41 ± 0.021", "unit": "ng/mL"}, {"measurement": "PGD2", "setting": "[3]; 100 nM + TNF-α (10 ng/mL), 4 h", "result": "0.18 ± 0.001", "unit": "ng/mL"}, {"measurement": "PGE2", "setting": "[3]; 100 nM + TNF-α (10 ng/mL), 4 h", "result": "0.39 ± 0.009", "unit": "ng/mL"}, {"measurement": "15d-PGJ2", "setting": "[3]; [4]", "result": "0.51 ± 0.012^d ng/mL"}, {"measurement": "PGE2", "setting": "[3]; [4]", "result": "1.40 ± 0.037^c ng/mL"}, {"measurement": "15d-PGJ2", "setting": "[3]; 100 nM, 4 h, without TNF-α", "result": "0.41 ± 0.004", "unit": "ng/mL"}, {"measurement": "PGD2", "setting": "[3]; 100 nM, 4 h, without TNF-α", "result": "0.17 ± 0.003", "unit": "ng/mL"}, {"measurement": "PGE2", "setting": "[3]; 100 nM, 4 h, without TNF-α", "result": "0.22 ± 0.005", "unit": "ng/mL"}, {"measurement": "15d-PGJ2", "setting": "[3]; 100 nM, 24 h, without TNF-α", "result": "0.58 ± 0.024^a ng/mL"}, {"measurement": "PGD2", "setting": "[3]; 100 nM, 24 h, without TNF-α", "result": "0.13 ± 0.002", "unit": "ng/mL"}, {"measurement": "PGE2", "setting": "[3]; 100 nM, 24 h, without TNF-α", "result": "0.25 ± 0.012", "unit": "ng/mL"}]}]}
